According to patent publication US20160256449A1, “H3 RECEPTOR ANTAGONIST FOR USE IN THE TREATMENT OF ALZHEIMER'S DISEASE” (SANOFI, priority 2013, published 2016):

What was measured:
[1] = test system: patients with mild to moderate Alzheimer's disease; assay: clinical study, AES-I apathy score; format: in vivo, human; settings: 5 mg/day with donepezil
Description: “AES-I” as used herein, refers to the Apathy Evaluation Scale for Informant which assess global measure of apathy. Scores range from 18 (best possible) to 72 (worst possible).
(§1) A randomized, double-blind, parallel-group, placebo-controlled clinical trial was performed to study the effect on cognitive performance, safety, and tolerability of 2-(cyclohexylmethyl)-N-{2-[(2S)-1-methylpyrrolidin-2-yl]ethyl}-1,2,3,4-tetrahydroisoquinoline-7-sulfonamide difumarate monohydrate as adjunct treatment to donepezil.
(§2) More specifically, patients with mild to moderate Alzheimer's disease on stable donepezil therapy were randomized to receive doses of 0.5 mg, 2 mg, or 5 mg/day of 2-(cyclohexylmethyl)-N-{2-[(2S)-1-methylpyrrolidin-2-yl]ethyl}-1,2,3,4-tetrahydroisoquinoline-7-sulfonamide difumarate monohydrate or placebo for 24 weeks, with a 10 week follow-up period.
(§3) Patients were randomized to receive 0.5 mg, 2 mg, or 5 mg of 2-(cyclohexylmethyl)-N-{2-[(2S)-1-methylpyrrolidin-2-yl]ethyl}-1,2,3,4-tetrahydroisoquinoline-7-sulfonamide difumarate monohydrate (measured in base form), or matching placebo once a day, with donepezil (5 mg or 10 mg in the form the patient took prior to enrollment), for 24 weeks, with or without food.
Change from baseline to Week 12 and 24 in the Apathy Evaluation Scale for Informant (AES-I) score; and […]

CD1 male mice = assay: object recognition test in normal mice; format: in vivo
Text: FIG. 1 illustrates the results of the effect of a co-treatment with 2-(cyclohexyl methyl)-N-{2-[(2S)-1-methyl pyrrolidin-2-yl]ethyl}-1,2,3,4-tetrahydroisoquinoline-7-sulfonamide and donepezil on recognition memory in normal mice at various delays using the object recognition task.
The results of this study are depicted in FIG. 1.

[2] = test system: patients with mild to moderate Alzheimer's disease; assay: clinical study, ADAS-Cog 11 items; format: in vivo, human; settings: mITT
Text: “ADAS-Cog” as used herein, refers to a sensitive and standardized neuropsychological test battery to assess cognitive dysfunction characteristics of patients with AD including memory and orientation, language (aphasia), motor skills (praxis), attention and concentration. The original, standard version consists of 11 items. The total score of these 11-item scores ranges from 0-70 with higher scores indicating greater cognitive impairment. More recently, two additional tasks have been added in a new 13-item version of the scale proposed for patients with mild disease: Delayed Word Recall and Concentration/Distractibility.
as §1, with “donepezil. […]” for “donepezil.”
as §3, with “food. […]” for “food.”

[3] = test system: patients with mild to moderate Alzheimer's disease; assay: clinical study, Neuropsychiatric Inventory (NPI) domain scores; format: in vivo, human
Description: as §1, §2, §3
[…] (NPI) domain scores of irritability/lability, anxiety, agitation/aggression, sleep and nighttime behavior disorders, aberrant motor behaviour, apathy/indifference, appetite/eating change, delusions, depression/dysphoria, disinhibition, elation/euphoria, and hallucinations.

`CN1CCC[C@H]1CCNS(=O)(=O)c1ccc2c(c1)CN(CC1CCCCC1)CC2` [API, 2-(cyclohexylmethyl)-N-{2-[(2S)-1-methylpyrrolidin-2-yl]ethyl}-1,2,3,4-tetrahydroisoquinoline-7-sulfonamide difumarate monohydrate] was tested, and the “AES-I change from baseline vs placebo” value ([1]; after 12 weeks, mITT) was “significant difference”, the “AES-I difference vs placebo” value ([1]; at 24 weeks and follow-up) was “no longer significant” and the “procognitive effect of co-administration in object recognition test” value (CD1 male mice; 3 mg/kg co-administered with 3 mg/kg donepezil hydrochloride, 48 hours post administration) was “significant procognitive effect”. The “memory in object recognition test” value (CD1 male mice; 3 mg/kg oral, individually, 24 hours after administration) was “enhanced the memory”, the “procognitive effect in object recognition test” value (CD1 male mice; 3 mg/kg oral, individually, after 48 hours) was “lack of procognitive effect” and the “ADAS-Cog score compared to placebo” value ([2]; 5 mg/day with donepezil, at follow-up) was “statistically significant improvement”. The “mean differences in the ADAS-Cog change score” value ([2]; after 24 weeks of treatment, with donepezil) was “not significantly different”, the “NPI Abberant motor behavior, Ch from bl W12” value ([3]; 0.5 mg/day with donepezil) was −0.08 and the “NPI Abberant motor behavior, Ch from bl W24” value ([3]; 0.5 mg/day with donepezil) was 0.42. For the same compound, the “NPI Agitation/Aggression, Ch from bl W12” value ([3]; 0.5 mg/day with donepezil) was 0.23, the “NPI Agitation/Aggression, Ch from bl W24” value ([3]; 0.5 mg/day with donepezil) was 0.04 and the “NPI Anxiety, Ch from bl W12” value ([3]; 0.5 mg/day with donepezil) was 0.20. The “NPI Anxiety, Ch from bl W24” value ([3]; 0.5 mg/day with donepezil) was 0.16, the “NPI Apathy/Indifference, Ch from bl W12” value ([3]; 0.5 mg/day with donepezil) was −0.21 and the “NPI Apathy/Indifference, Ch from bl W24” value ([3]; 0.5 mg/day with donepezil) was 0.13. For the same compound, the “NPI Appetite/Eating changes, Ch from bl W12” value ([3]; 0.5 mg/day with donepezil) was −0.58, the “NPI Appetite/Eating changes, Ch from bl W24” value ([3]; 0.5 mg/day with donepezil) was −0.33 and the “NPI Delusions, Ch from bl W12” value ([3]; 0.5 mg/day with donepezil) was 0.31. The “NPI Delusions, Ch from bl W24” value ([3]; 0.5 mg/day with donepezil) was 0.28, the “NPI Depression/Dysphoria, Ch from bl W12” value ([3]; 0.5 mg/day with donepezil) was 0.00 and the “NPI Depression/Dysphoria, Ch from bl W24” value ([3]; 0.5 mg/day with donepezil) was 0.07. The “NPI Disinhibition, Ch from bl W12” value ([3]; 0.5 mg/day with donepezil) was −0.13, the “NPI Disinhibition, Ch from bl W24” value ([3]; 0.5 mg/day with donepezil) was −0.06 and the “NPI Elation/Euphoria, Ch from bl W12” value ([3]; 0.5 mg/day with donepezil) was 0.15. The “NPI Elation/Euphoria, Ch from bl W24” value ([3]; 0.5 mg/day with donepezil) was 0.20, the “NPI Hallucination, Ch from bl W12” value ([3]; 0.5 mg/day with donepezil) was 0.05 and the “NPI Hallucination, Ch from bl W24” value ([3]; 0.5 mg/day with donepezil) was −0.06. For the same compound, the “NPI Irritability lability, Ch from bl W12” value ([3]; 0.5 mg/day with donepezil) was −0.07, the “NPI Irritability lability, Ch from bl W24” value ([3]; 0.5 mg/day with donepezil) was 0.09 and the “NPI Sleep and nighttime behavior, Ch from bl W12” value ([3]; 0.5 mg/day with donepezil) was 0.30. The “NPI Sleep and nighttime behavior, Ch from bl W24” value ([3]; 0.5 mg/day with donepezil) was −0.23, the “NPI Abberant motor behavior, Ch from bl W12” value ([3]; 2 mg/day with donepezil) was 0.25 and the “NPI Abberant motor behavior, Ch from bl W24” value ([3]; 2 mg/day with donepezil) was 0.56. The “NPI Agitation/Aggression, Ch from bl W12” value ([3]; 2 mg/day with donepezil) was 0.48, the “NPI Agitation/Aggression, Ch from bl W24” value ([3]; 2 mg/day with donepezil) was 0.68 and the “NPI Anxiety, Ch from bl W12” value ([3]; 2 mg/day with donepezil) was −0.03. For the same compound, the “NPI Anxiety, Ch from bl W24” value ([3]; 2 mg/day with donepezil) was 0.15, the “NPI Apathy/Indifference, Ch from bl W12” value ([3]; 2 mg/day with donepezil) was 0.26 and the “NPI Apathy/Indifference, Ch from bl W24” value ([3]; 2 mg/day with donepezil) was 0.92. The “NPI Appetite/Eating changes, Ch from bl W12” value ([3]; 2 mg/day with donepezil) was −0.18, the “NPI Appetite/Eating changes, Ch from bl W24” value ([3]; 2 mg/day with donepezil) was −0.02 and the “NPI Delusions, Ch from bl W12” value ([3]; 2 mg/day with donepezil) was −0.05. For the same compound, the “NPI Delusions, Ch from bl W24” value ([3]; 2 mg/day with donepezil) was 0.21, the “NPI Depression/Dysphoria, Ch from bl W12” value ([3]; 2 mg/day with donepezil) was 0.35 and the “NPI Depression/Dysphoria, Ch from bl W24” value ([3]; 2 mg/day with donepezil) was 0.12. For the same compound, the “NPI Disinhibition, Ch from bl W12” value ([3]; 2 mg/day with donepezil) was 0.08, the “NPI Disinhibition, Ch from bl W24” value ([3]; 2 mg/day with donepezil) was 0.03 and the “NPI Elation/Euphoria, Ch from bl W12” value ([3]; 2 mg/day with donepezil) was −0.06. For the same compound, the “NPI Elation/Euphoria, Ch from bl W24” value ([3]; 2 mg/day with donepezil) was 0.07, the “NPI Hallucination, Ch from bl W12” value ([3]; 2 mg/day with donepezil) was 0.02 and the “NPI Hallucination, Ch from bl W24” value ([3]; 2 mg/day with donepezil) was 0.02. The “NPI Irritability lability, Ch from bl W12” value ([3]; 2 mg/day with donepezil) was 0.47, the “NPI Irritability lability, Ch from bl W24” value ([3]; 2 mg/day with donepezil) was 0.63 and the “NPI Sleep and nighttime behavior, Ch from bl W12” value ([3]; 2 mg/day with donepezil) was 0.33. The “NPI Sleep and nighttime behavior, Ch from bl W24” value ([3]; 2 mg/day with donepezil) was 0.19, the “NPI Abberant motor behavior, Ch from bl W12” value ([3]; 5 mg/day with donepezil) was −0.11 and the “NPI Abberant motor behavior, Ch from bl W24” value ([3]; 5 mg/day with donepezil) was −0.69. The “NPI Agitation/Aggression, Ch from bl W12” value ([3]; 5 mg/day with donepezil) was −0.12, the “NPI Agitation/Aggression, Ch from bl W24” value ([3]; 5 mg/day with donepezil) was 0.58 and the “NPI Anxiety, Ch from bl W12” value ([3]; 5 mg/day with donepezil) was 0.12. For the same compound, the “NPI Anxiety, Ch from bl W24” value ([3]; 5 mg/day with donepezil) was 0.12, the “NPI Apathy/Indifference, Ch from bl W12” value ([3]; 5 mg/day with donepezil) was 0.09 and the “NPI Apathy/Indifference, Ch from bl W24” value ([3]; 5 mg/day with donepezil) was 0.10. The “NPI Appetite/Eating changes, Ch from bl W12” value ([3]; 5 mg/day with donepezil) was −0.17, the “NPI Appetite/Eating changes, Ch from bl W24” value ([3]; 5 mg/day with donepezil) was 0.1 and the “NPI Delusions, Ch from bl W12” value ([3]; 5 mg/day with donepezil) was 0.00. The “NPI Delusions, Ch from bl W24” value ([3]; 5 mg/day with donepezil) was 0.04, the “NPI Depression/Dysphoria, Ch from bl W12” value ([3]; 5 mg/day with donepezil) was −0.07 and the “NPI Depression/Dysphoria, Ch from bl W24” value ([3]; 5 mg/day with donepezil) was 0.25. For the same compound, the “NPI Disinhibition, Ch from bl W12” value ([3]; 5 mg/day with donepezil) was 0.00, the “NPI Disinhibition, Ch from bl W24” value ([3]; 5 mg/day with donepezil) was 0.06 and the “NPI Elation/Euphoria, Ch from bl W12” value ([3]; 5 mg/day with donepezil) was 0.14. The “NPI Elation/Euphoria, Ch from bl W24” value ([3]; 5 mg/day with donepezil) was 0.10, the “NPI Hallucination, Ch from bl W12” value ([3]; 5 mg/day with donepezil) was −0.14 and the “NPI Hallucination, Ch from bl W24” value ([3]; 5 mg/day with donepezil) was −0.15. For the same compound, the “NPI Irritability lability, Ch from bl W12” value ([3]; 5 mg/day with donepezil) was 0.03, the “NPI Irritability lability, Ch from bl W24” value ([3]; 5 mg/day with donepezil) was 0.47 and the “NPI Sleep and nighttime behavior, Ch from bl W12” value ([3]; 5 mg/day with donepezil) was 0.08. For the same compound, the “NPI Sleep and nighttime behavior, Ch from bl W24” value ([3]; 5 mg/day with donepezil) was 0.71 and the “domains of the NPI, overall” value ([3]; 0.5, 2, 5 mg/day with donepezil) was “No relevant modification”.
